Values quoted from earlier work as cited in patent publication US20200254013A1, “COMPOSITIONS COMPRISING ALPHA-POLYGLUTAMIC ACID-ZINC FOR TREATING CANCER” (XYLONIX IP HOLDINGS PTE. LTD., priority 2017, published 2020).

Experiments:
[1] = test system: folate receptor (FR), FR-α and FR-β
[2] = test system: murine thymocytes, murine splenic lymphocytes, human Ramos B, and human Jurkat T cells; settings: nanomolar concentrations
[3] = test system: LNCaP, PC3, DU145 prostate cancer cell lines; settings: 1-10 μM
[4] = dietary administration 240 ppm, after 9-14 days

Compound	affinity for FR-α versus FR-β [1]	apoptosis in leukocyte-originating cells [2]	ATP-depletion and necrosis in prostate cancer cell lines [3]	neurological toxicity in rats [4]
CN(CC1CNc2nc(N)[nH]c(=O)c2N1C)c1ccc(C(=O)N[C@@H](CCC(=O)O)C(=O)O)cc1 (stereo partly shown) [DMTHF, N^5, N^10-dimethyl tetrahydrofolate]	higher affinity for FR-α over FR-β	–	–	–
zinc pyrithione	–	induced zinc-specific apoptosis	elicited ATP-depletion and, eventually, ERK and PKC-dependent necrosis	acute neurological toxicity
